Measurements as given in patent US20260294845A1, “Uses of Adrenalone to Manage Cardiotoxicity or Cardiovascular Disorders” (Emory University, priority 2023, published 2026).

Columns and labels:
hiPSC-CMs [1] = test: Mitochondrial oxidative stress caused by bortezomib (PS-341); assay type: cell-based, human; conditions: with bortezomib
Text: Cardiomyocytes derived from human pluripotent stem cells (hiPSC-CMs) were provide a new platform for the studies of cancer drug-induced side effects and therapies. Using these cells, lead molecules were identified indicating protective properties on cardiomyocytes from the toxic effect of chemotherapy agents and ethanol (EtOH). […] Oxidative stress is a common molecular mechanism for cardiotoxicity induced by chemotherapy including proteosome inhibitors.

hiPSC-CMs [2] = test: Cell viability of hiPSC-CMs treated with doxorubicin with or without 4H10 (CellTiter-Blue); assay type: cell-based, human; conditions: doxorubicin 1-10 μM alone, 24 h, compared with untreated cells
Text: Doxorubicin is a widely used chemotherapy drug for various cancers, including breast cancer, leukemia, and lymphoma. However, one significant side effect associated with doxorubicin use is cardiotoxicity. It is contemplated that 4H10 may target common mechanisms of cardiotoxicity and have a broad impact of cardioprotection since it protects hiPSC-CMs from toxicity induced by both ethanol and carfilzomib.

patients = conditions: cancer patients on therapy; cited from earlier work
hiPSC-CMs [3] = test: Effects of chemotherapeutic agents on function of hiPSC-CMs; assay type: cell-based, human; conditions: melphalan treatment

CNCC(=O)c1ccc(O)c(O)c1 [Adrenalone, 1-(3,4-dihydroxyphenyl)-2-(methylamino) ethan-1-one]
mitochondrial oxidative stress caused by bortezomib (PS-341) (hiPSC-CMs [1]): reduced mitochondrial oxidative stress

COc1cccc2c1C(=O)c1c(O)c3c(c(O)c1C2=O)C[C@@](O)(C(=O)CO)C[C@@H]3O[C@H]1C[C@H](N)[C@H](O)[C@H](C)O1 [doxorubicin]
cell viability after doxorubicin (hiPSC-CMs [2]): significant decrease in cell viability | cardiac adverse events in patients (patients): cardiotoxicity

melphalan
cardiotoxicity in hiPSC-CMs: cardiac function (hiPSC-CMs [3]): abnormal cardiac function | cardiotoxicity in hiPSC-CMs: oxidative stress (hiPSC-CMs [3]): induces cardiotoxicity, including oxidative stress | cardiac adverse events in patients (patients): clinically observed arrhythmias
